Consider two compounds from patent US12508258B2, “Quinoline derivative for treating rheumatoid arthritis” (CHIA TAI TIANQING PHARMACEUTICAL GROUP CO., LTD., priority 2020, dated 2025).

The test system of data set [1] is rat rheumatoid arthritis model. Briefly: Rat rheumatoid arthritis CIA model, overall drug efficacy. Type of data set: in vivo. The conditions noted are these: Wistar CIA rats; anlotinib 10 mg/kg oral gavage once daily for 14 days. Here is the method:
(§1) 15 SPF healthy male rats from Wistar with the weight of 160-180 g and purchased from Shanghai Institute of Planned Parenthood Research, with Certificate No. 20180006022473 in an SPF feeding environment.
15 rats were randomly divided into two groups according to the weight, blank control group (n=3) and modeling group (n=12).
(§2) Modeling group: on day 1 of the experiment, the primary immunization was performed. The animals in the modeling group were anesthetized with isoflurane. Four points were taken to inject the modeling agent on both sides of the spinal cord skin at the base of the tail of the rats. A total of 0.2 mL of CII/CFA molding emulsion was injected intradermally. On day 8 of the experiment, the second immunization was performed, and the operations were the same as those on day 1 of the experiment. Blank control group: equal volume of normal saline was injected.
The animals in the modeling group were divided into 3 groups according to the joint swelling degree and the joint scores: group-2 (n=4, model group), group-3 (n=4, positive control group), and group-4 (n=4, test drug group).
After grouping, oral gavage administration was started according to the grouping requirements, and the administration volume was 10 mL/kg. The administration was carried out once daily for 14 days (from day 1 to day 14). […]

For data set [2], the system named is rheumatoid arthritis CIA model rats. Briefly: Rheumatoid arthritis CIA model, hind limb joint size monitoring (vernier caliper). To be noted: Wistar CIA rats, anlotinib 10 mg/kg; for joint swelling degree (ankle width and thickness) compared to model group: dexamethasone 0.1 mg/kg, FIGS. 2 and 3; for width of the hind limb ankle joints vs. model group / thickness of the hind limb ankle joints vs. model group: dexamethasone 0.1 mg/kg oral gavage once daily; for width of the hind limb ankle joints vs. model group: FIG. 2; for thickness of the hind limb ankle joints vs. model group: FIG. 3. Type of data set: in vivo. Here is the method:
as §1, §2
(§3) After grouping, oral gavage administration was started according to the grouping requirements, and the administration volume was 10 mL/kg. The administration was carried out once daily for 14 days (from day 1 to day 14). On day 15, the animals were dissected after collection of relevant experimental data.
During the experiment, the width and thickness of the hind limb ankle joints of the rats in each group were measured with a vernier caliper on day 1, day 4, day 8, day 11 and day 15.

Data set [3] concerns human rheumatoid arthritis synovial cells. Briefly: MTT assay for the inhibition of human rheumatoid arthritis synovial cells. The data set is classed as cell-based. The procedure: An MTT assay for the inhibition of human rheumatoid arthritis synovial cells using the dihydrochloride salt of the compound of formula I as the test drug: the trypsinized cell suspension was seeded in a 96-well plate at a volume of 100 μL per well, with 1×10^4 cells per well. The edges of the plate were wiped with sterile PBS. The plate was placed in a cell incubator and incubated at 37° C. with 5% CO2. After 24 h of incubation, the original culture solution in the wells was aspirated. Then 100 μL of culture solution with gradient concentration of drug was added to each well, and 6 concentrations were set, namely, 0 μM, 0.5 μM, 1 μM, 2 μM, 5 μM and 10 μM, respectively. The plate was placed in the incubator and incubated at 37° C. with 5% CO2. After 24 h and 48 h after dosing, 20 μL of MTS was added to each well. The plate was incubated at 37° C. for 1.5 h. The absorbance of each well at a wavelength of 540 nm was measured by a microplate reader, and the inhibition rate of cells in each group was calculated.
The calculation formula is as follows: cell inhibition rate/%=(1−[…])×100%
Background: Tetrazolium assays rely on reduction of a dye to a coloured formazan, in cell work by metabolically active cells.

Data set [4] concerns tumor necrosis factor-α (TNF-α). Briefly: CIA model rats, serum TNF-α by enzyme-linked immunosorbent assay. Type of data set: in vivo. To be noted: SD CIA rats; day 28; 20 and 10 mg/kg. The procedure:
(§4) After adaptive feeding of 80 SPF male SD rats with the weight of 140±10 g for 5 days, 10 male SD rats were randomly selected as a normal control group, and the rest were subjected to collagen-induced arthritis model modeling. The specific methods are as follows.
(§5) A solution of the bovine type II collagen (CII) in acetic acid (containing 2.0 mg·mL^−1 bovine CII) and an equal volume of complete Freund's adjuvant (CFA) were completely mixed, and the mixture was fully emulsified. The emulsion was added dropwise to water without diffusing as the degree, and finally the emulsion containing 1.0 mg·mL^−1 bovine CII was prepared. 0.2 mL of the emulsion was taken and injected intradermally into the dorsal and the base of the tail at four points (two points on the dorsal and two points on the base of the tail) for the primary immunization (d0). After day 7 (d7) of primary immunization, the emulsion was injected again as described above to boost the immunization. Then the arthritis index (AI) was scored on day 14 (d14). […]
(§6) After day 28 of the experiment, the blood was collected from the abdominal aorta of the rats in each group, and the serum was separated. The tumor necrosis factor-α (TNF-α) and the interleukin-1β (IL-1β) were detected by enzyme-linked immunosorbent assay, and the specific method was carried out according to the specifications of the kit. […]

Data set [5] relates to rheumatoid arthritis CIA model rats. Briefly: Rheumatoid arthritis CIA model, hind limb joint weight determination. The conditions noted are these: day 8; Wistar CIA rats; anlotinib 10 mg/kg, dexamethasone 0.1 mg/kg oral gavage once daily; FIG. 5. The data set is classed as in vivo. The procedure: as §1, §2, §3
On day 8, two rats in each group were dissected, and the weight of the hind limb joints was measured. The remaining animals were subjected to normal experiments according to the grouping schedule. On day 15, the remaining animals in each group were dissected, and the weight of the hind limb joints was measured.

Data set [6] is described as follows: Rheumatoid arthritis CIA model, weight monitoring. Type of data set: in vivo. To be noted: Wistar CIA rats, oral gavage once daily 14 days, dexamethasone 0.1 mg/kg, FIG. 1; for weight of the rats, regain after treatment: anlotinib 10 mg/kg. Here is the method: as §1, §2, §3
During the experiment, the weight of the rats in each group was measured once daily from the day of grouping and administration (day 1) to day 15.

Data set [7] relates to CIA rats. Briefly: CIA model rats, determination of the rat paw swelling degree. The data set is classed as in vivo. To be noted: SD CIA rats; right hind paw thickness; 20 and 10 mg/kg. The procedure:
as §4, §5
Determination of the rat paw swelling degree: before the primary immunization (d0), every 7 d (d7, d14) after the primary immunization and every 4 d after treatment, the thickness of the right hind paw of the rats was measured with a vernier caliper at the same position. […]

Data set [8] concerns rheumatoid arthritis CIA model rats. Briefly: Rheumatoid arthritis CIA model, hind limb joint lesion scoring. To be noted: Wistar CIA rats, anlotinib 10 mg/kg, dexamethasone 0.1 mg/kg oral gavage once daily, FIG. 4. The data set is classed as in vivo. The procedure: as §1, §2
After modeling was completed, the animals were normally observed and housed. After the hind limb joints of the animals were diseased, the animals were grouped according to the joint swelling degree and the joint score, wherein the scoring criteria were as follows: • clinical diagnostic scoring criteria for joint soft tissue swelling and joint mobility:
as §3
During the experiment, hind limb ankle joints of the rats in each group were scored for joint soft tissue swelling and joint mobility on day 1, day 4, day 8, day 11 and day 15.

The test system is the same in data set [9]. Briefly: Rheumatoid arthritis CIA model, joints photographing. To be noted: Wistar CIA rats; anlotinib 10 mg/kg, dexamethasone 0.1 mg/kg; FIGS. 6 and 7. The data set is classed as in vivo. The procedure: as §1, §2, §3
One rat in each group was selected, and the hind limb ankle joints thereof were photographed on day 4, day 8, day 11 and day 15.

Data set [10] has as its system CIA rats. Briefly: CIA model rats, ankle joint histopathology (HE staining, lesion observation and scoring). Type of data set: in vivo. To be noted: SD CIA rats; for joint lesions (histopathology) compared to model group: intragastric, once daily five days on/two days off, two weeks, formula I dihydrochloride 20 and 10 mg/kg, dexamethasone sodium phosphate 0.05 mg/kg. Here is the method: as §4
A solution of the bovine type II collagen (CII) in acetic acid (containing 2.0 mg·mL^−1 bovine CII) and an equal volume of complete Freund's adjuvant (CFA) were completely mixed, and the mixture was fully emulsified. The emulsion was added dropwise to water without diffusing as the degree, and finally the emulsion containing 1.0 mg·mL^−1 bovine CII was prepared. 0.2 mL of the emulsion was taken and injected intradermally into the dorsal and the base of the tail at four points (two points on the dorsal and two points on the base of the tail) for the primary immunization (d0). After day 7 (d7) of primary immunization, the emulsion was injected again as described above to boost the immunization. Then the arthritis index (AI) was scored on day 14 (d14). The highest score of each rat was 16 points, and the arthritis induction was considered successful if there was at least 1 paw with AI score≥2.
The CIA rats successfully modeled were randomly divided into a drug medium-dose group, a drug low-dose group and a model group, with 10 rats in each group. The normal group and the model group were subjected to intragastric administration with 0.02 mL·g^−1 normal saline; the drug medium-dose group and the drug low-dose group were administered with the dihydrochloride salt of the compound of formula I at 20 mg/kg and 10 mg/kg, respectively, (the vehicle was normal saline). The positive drug group was subjected to intragastric administration with dexamethasone sodium phosphate with the dose of 0.05 mg/kg. The rats was administered once daily from Monday to Friday (i.e., consecutively five-day administration and then two-day interruption). The dosing period was two weeks.
After the animal blood collection was finished, ankle joints were fixed in 10% formalin. The ankle joints were subjected to decalcification by 10% acetic acid and then were subjected to routine paraffin embedding, slicing and HE staining. The slices were observed by pathology professionals, and then the damage degree of joint synovial tissue, joint bones and cartilage tissue was observed and scored for comparison.
Observation of lesions and scoring: 1. whether the joint synovial cells are proliferated or eroded (denatured, necrotic), and whether the inflammatory cells infiltrate or not; 2. whether the pannus is formed (composed of blood vessels and fibroblasts); 3. whether the bony erosion (joint bone and cartilage) or hyperplasia exists; 5. whether the joint cavity has stenosis, disappearance and other lesions. The observation indexes were classified into 3 grades according to the severity of the lesions, which were respectively recorded as: 1 point for slight, 2 points for moderate, and 3 points for severe. 0 points means substantially normal. All scores were accumulated to obtain a total score, and the average score (mean±SD) of each animal in each group was calculated, and the higher the score, the more severe the lesion.

The test system of the next data set is interleukin-1β (IL-1β). Briefly: CIA model rats, serum IL-1β by enzyme-linked immunosorbent assay. The data set is classed as in vivo. To be noted: SD CIA rats; day 28; 20 and 10 mg/kg. The procedure:
as §4, §5, §6

Molecules are shown by their SMILES. Structures can show the parent of a compound that is named as a salt.

Regarding `COc1cc2c(Oc3ccc4[nH]c(C)cc4c3F)ccnc2cc1OCC1(N)CC1` [Anlotinib hydrochloride, 1-[[[4-(4-fluoro-2-methyl-1H-indol-5-yl)oxy-6-methoxyquinolin-7-yl]oxy]methyl]cyclopropylamine], the “drug efficacy on the rat rheumatoid arthritis model (conclusion)” value in [1] is “significant drug efficacy”. For the same compound, the “joint swelling degree (ankle width and thickness) compared to model group” value in data set [2] is listed as “improved to a certain extent”. Further, the “width of the hind limb ankle joints vs. model group” value in [2] (day 4), in data set [2] (day 8) and in [2] (day 15) was “lower than that of the model group” throughout. In addition, the “thickness of the hind limb ankle joints vs. model group” value in data set [2] (day 4) and in data set [2] (day 8) was “lower than that of the model group” throughout. Moreover, the “inhibition of proliferation of human rheumatoid arthritis synovial cells” value in data set [3] (0.5, 1, 2, 5 and 10 μM compared with drug-free group at 0 μM, 24 h and 48 h after dosing) is listed as “significantly inhibit the proliferation of human rheumatoid arthritis synovial cells”. For the same compound, the “concentration dependence of the inhibitory effect on synovial cell proliferation” value in [3] (0.5-10 μM) was “enhanced along with the increase of the concentration of the drug”. Moreover, the “content of TNF-α in the serum of rats compared with model group” value in data set [4] is listed as “could reduce”. In data set [5], the “weight of the hind limb joints vs. model group” value was “lower than that of the model group”. Further, in [6], the “weight of the rats, regain after treatment” value is “began to regain from day 7”. Besides, in the data set with CIA rats [7], the “paw swelling degree compared with model group” value is given as “significantly reduced”. Further, the “lesion scores of the hind limb ankle joints vs. model group” value in [8] (day 4), in [8] (day 8), in data set [8] (day 11) and in [8] (day 15) was “lower than those of the model group” each time. Besides, the “joint swelling degree on photographs compared to model group” value in data set [9] is reported as “improved to a certain extent”. For the same compound, the “dose dependence of joint improvement (histopathology)” value in the data set on CIA rats [10] (20 mg/kg and 10 mg/kg) is “improved in a dose-dependent manner”. Moreover, the “joint cavity stenosis compared with model group” value with CIA rats [10] (20 and 10 mg/kg) was “significantly improved”. Moreover, the “joint inflammatory infiltration compared with model group” value in the data set with CIA rats [10] (20 and 10 mg/kg) is “significantly reduced”. For the same compound, the “synovium hyperplasia compared with model group” value in the data set on CIA rats [10] (20 and 10 mg/kg) is listed as “significantly relieved”. Also, the “joint lesions (histopathology) compared to model group” value in the data set on CIA rats [10] is listed as “improved in different degrees”. Further, the “content of IL-1β in the serum of rats compared with model group” value in the data set with interleukin-1β (IL-1β) is “could reduce”.
With `C[C@@H]1C[C@H]2[C@@H]3CCC4=CC(=O)C=C[C@]4(C)[C@@]3(F)[C@@H](O)C[C@]2(C)[C@@]1(O)C(=O)COP(=O)(O)O` [dexamethasone sodium phosphate, reference compound], the “joint swelling degree (ankle width and thickness) compared to model group” value in [2] is reported as “improved to a certain extent”. Also, the “thickness of the hind limb ankle joints vs. model group” value in data set [2] (day 8) is reported as “lower than that of the model group”. The “width of the hind limb ankle joints vs. model group” value in data set [2] (day 15) is recorded as “lower than that of the model group”. In addition, the “weight of the hind limb joints vs. model group” value in [5] was “lower than that of the model group”. In data set [6], the “weight of the rats, regain after treatment” value is “began to regain from day 7”. In addition, in data set [6], the “weight of the rats, early stage (side effect)” value is on record as “significant weight loss at the early stage”. In addition, the “lesion scores of the hind limb ankle joints vs. model group” value in [8] (day 8), in data set [8] (day 11) and in data set [8] (day 15) was “lower than those of the model group” each time. Besides, the “joint swelling degree on photographs compared to model group” value in data set [9] is reported as “improved to a certain extent”. For the same compound, in the data set on CIA rats [10], the “joint lesions (histopathology) compared to model group” value was “significantly reduced”.
